Measured values reported in article PMC12525168, “Targeting carA Using Optimized Antisense Peptide Nucleic Acid–Cell-Penetrating Peptide Conjugates in Acinetobacter baumannii: A Novel Antibacterial Approach” (International Journal of Molecular Sciences, 2025).

Key:
A. baumannii ATCC 17978 [1] = experiment: MIC by broth microdilution (CLSI); format: cell-based, Acinetobacter baumannii; conditions: CAMHB with TES buffer, 37 °C, 18–20 h, at least two independent experiments in duplicate
Source text: CPP–PNA conjugates were synthesized by HLB […] Co., LTD. The binding sites within A. baumannii ATCC 17978 were predicted and analyzed using Geneious Prime (version 1 February 2025), enabling precise identification of target regions for subsequent antisense PNA design. Specifically, α-PNA modifications introduced arginine, while γ-PNA modifications incorporated guanidino-lysine. The diverse CPP–PNA and α- and γ-modified PNA oligomers were generated via solid-phase peptide synthesis using benzothiazole sulfonyl and standard fluorenylmethyloxycarbonyl chemistry procedures on an automatic synthesizer (HLB-[…]). The synthesized PNA oligomers were cleaved from the solid support resin using a mixed solution containing trifluoroacetic acid. The PNA mixture separated from the solid support was purified using reverse-phase high-performance liquid chromatography, and the purity and molecular weight were determined and confirmed using high-performance liquid chromatography and matrix-assisted laser desorption/ionization time-of-flight mass spectrometry (Figures S1 and S2). The MIC of each CPP–PNA conjugate was determined using the broth microdilution method in accordance with the Clinical and Laboratory Standards Institute guidelines. A. baumannii ATCC 17978 was used as the test strain. The CPP–PNA conjugates were tested at concentrations of […], 3.125, 6.25, 12.5, 25, and 50 µM in 100 µL of cation-adjusted Mueller–Hinton broth with N-Tris (hydroxymethyl) methyl-2-aminoethanesulfonic acid buffer (CAMHB; T3462; Thermo Fisher Scientific, Waltham, MA, USA). The microdilution plates were incubated at 37 °C for 18–20 h. A minimum of two independent experiments, each performed in duplicate, were conducted to ensure reproducibility.

A. baumannii ATCC 17978 [2] = experiment: Bactericidal test: colony count after treatment with 50 µM CPP–PNA; format: cell-based, Acinetobacter baumannii; conditions: for Bactericidal activity in MBC assay (in words) / Average CFU: 50 µM CPP–PNA; for Average CFU: mean of two plates, plated 24 h; for Average CFU / MBC (CFU) in 50 µM CPP–PNA: 4 h at 37 °C; for MBC (CFU) in 50 µM CPP–PNA: 1 × 10^7 CFU/mL inoculum, 50 µL spread on Muller–Hinton agar, 24 h at 37 °C
Source text: Artificially synthesized CPP–PNA (carA, […]) conjugates were used to silence carA. Briefly, carA-specific oligonucleotides were identified from the genomic sequence of A. baumannii ATCC 17978 (CP049363.1). The CPP–PNA conjugates, namely KFFK (FFK)2–PNA, KKFK (FFK)2–PNA, and KKKK (FFK)2–PNA, were synthesized by HLB […] Co., LTD. (Daejeon, Republic of Korea). These conjugates were engineered to specifically bind to the translation initiation region of carA, which includes the TTG start codon and the Shine-Dalgarno sequence (TTTGGT) crucial to ribosomal interaction.
To prepare bacterial suspensions, cultures of A. baumannii ATCC 17978 were grown until the OD600 value reached 0.8. The CPP–PNA conjugates were prepared to achieve concentrations of 50 and 0 µM in a total volume of 100 µL per well in 96-well plates. Subsequently, 10 µL of the adjusted bacterial suspension was inoculated into each well (1 × 10^7 CFU/mL). The plates were then incubated at 37 °C for 4 h. Subsequently, 50 µL of each CPP–PNA conjugate-treated bacterial suspension was spread on Muller–Hinton agar plates, with each condition distributed across two plates. The plates were subsequently incubated at 37 °C for 24 h to enable bacterial growth and colony formation.

For “Control 3 (acpP): KFFK(FFK)2 conjugated to PNA TGATTTGCCAC targeting acpP [reference compound]”, the MIC (A. baumannii ATCC 17978 [1]) was 25 µM.

Work on “Control 4 (ftsZ): KFFK(FFK)2 conjugated to PNA GAGGCCATGAC targeting ftsZ [reference compound]” yielded an MIC (A. baumannii ATCC 17978 [1]) of 50 µM.

“Control 5 (rne): KFFK(FFK)2 conjugated to PNA ACGTTTCATGG targeting rne [reference compound]” showed an MIC (A. baumannii ATCC 17978 [1]) of 50 µM.

With “KFFK(FFK)2-CGGGGGTGCTCAA: KFFK(FFK)2 conjugated to 13-mer PNA targeting carA start codon (all peptide nucleic acid (PNA); KFFK(FFK)2 cell-penetrating peptide conjugated to the PNA, attachment site not given here)” the MIC (A. baumannii ATCC 17978 [1]) was >50 µM.

Substance “KFFK(FFK)2-TCAAA*CCA*AAGCT: KFFK(FFK)2 conjugated to γ-modified 13-mer PNA targeting carA RBS (TCAAACCAAAGCT; KFFK(FFK)2 peptide conjugate, γ-modified PNA, chemistry not fully specified)” has an MIC (A. baumannii ATCC 17978 [1]) of 25 µM.

“KFFK(FFK)2-TCAAACCAAAGCT: KFFK(FFK)2 cell-penetrating peptide conjugated to unmodified 13-mer antisense PNA TCAAACCAAAGCT targeting carA RBS (all peptide nucleic acid (PNA); KFFK(FFK)2 peptide conjugated)” was tested, and the “Bactericidal activity in MBC assay (in words)” value (A. baumannii ATCC 17978 [2]) was “No A. baumannii colonies were detected”, the “Average CFU” value (A. baumannii ATCC 17978 [2]) was 0 CFU and the “MBC (CFU) in 50 µM CPP–PNA” value (A. baumannii ATCC 17978 [2]; plate 1 of two) was 0 CFU. The “MBC (CFU) in 50 µM CPP–PNA” value (A. baumannii ATCC 17978 [2]; plate 2 of two) was 0 CFU and the MIC (A. baumannii ATCC 17978 [1]) was 25 µM.

Work on “KFFK(FFK)2-TTACTGTTTAGAT: KFFK(FFK)2 conjugated to 13-mer PNA targeting carA stop codon (all peptide nucleic acid (PNA); KFFK(FFK)2 cell-penetrating peptide conjugated to the PNA, attachment site not given here)” yielded an MIC (A. baumannii ATCC 17978 [1]) of 50 µM.

With “KKFK(FFK)2-TCAAACCAAAGCT: KKFK(FFK)2 cell-penetrating peptide conjugated to 13-mer antisense PNA TCAAACCAAAGCT targeting carA (all peptide nucleic acid (PNA); KKFK(FFK)2 peptide conjugated)” the “Average CFU” value (A. baumannii ATCC 17978 [2]) was 10.5 CFU, the “MBC (CFU) in 50 µM CPP–PNA” value (A. baumannii ATCC 17978 [2]; plate 1 of two) was 7 CFU and the “MBC (CFU) in 50 µM CPP–PNA” value (A. baumannii ATCC 17978 [2]; plate 2 of two) was 14 CFU.

With “KKKK(FFK)2-TCAAACCAAAGCT: KKKK(FFK)2 cell-penetrating peptide conjugated to 13-mer antisense PNA TCAAACCAAAGCT targeting carA (all peptide nucleic acid (PNA); KKKK(FFK)2 peptide conjugated)” the “Bactericidal activity in MBC assay (in words)” value (A. baumannii ATCC 17978 [2]) was “no bactericidal activity”, the “Average CFU” value (A. baumannii ATCC 17978 [2]) was “TNTC” and the “MBC (CFU) in 50 µM CPP–PNA” value (A. baumannii ATCC 17978 [2]; plate 1 of two) was “TNTC”. For the same substance, the “MBC (CFU) in 50 µM CPP–PNA” value (A. baumannii ATCC 17978 [2]; plate 2 of two) was “TNTC”.
